# Where two headings read alike, the source gives them in different places.
# Assays:
# [1] = biological target: Tyk2/JAK2 (heterodimeric complex) (Homo sapiens (Human), UniProt P29597); assay: IL-12 Induced pSTAT4 in Human PBMC; assay type: cell-based; details: 1.7 ng/mL IL-12
# Text: The IL-12 Induced pSTAT4 assay evaluates the inhibition of IL-12 induced STAT4 phophorylation mediated by Tyk2/JAK2 (heterodimeric complex).
# [2] = biological target: JAK2/JAK2 homdimeric complex (Homo sapiens (Human), UniProt O60674); assay: GM-CSF Induced pSTAT5 in Human PBMC; assay type: cell-based; details: GM-CSF 5 ng/mL for 20 minutes, pSTAT5 by MSD, read-out: PBMC_GMCSF_pSTAT5 IC50
# Tyk2 kinase domain (DH1) = Tyk2 kinase domain (DH1) (Homo sapiens (Human), UniProt P29597); assay: Tyk2 Radioactive Kinase Assay; assay type: biochemical; details: for inhibition at 10 µM: read-out: Tyk2 JH1% Inhibition @ 10 μM
# How it was run: (§1)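 Each kinase domain is incubated with test compound at 10 μM. Activity is then measured radiometrically and expressed as percent inhibition relative to uninhibited enzyme.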
# JAK2 kinase domain (JH1) = JAK2 kinase domain (JH1) (Homo sapiens (Human), UniProt O60674); assay: JAK2 Radioactive Kinase Assay; assay type: biochemical; details: for inhibition at 10 µM: read-out: JAK2 JH1% Inhibition @ 10 μM
# How it was run: as §1
# [3] = biological target: human TYK2 (JH2domain-pseudokinase) (Homo sapiens (Human), UniProt P29597); assay: TYK2 JH2 Domain Binding Assay (KINOMEscan)
# How it was run: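 Competition binding of a DNA-tagged fusion of human TYK2 JH2 pseudokinase (G556–D888) with NFkB DNA-binding domain, from HEK293 extracts (<0.1 nM final), against immobilised ligand beads; 1 h shaking at room temperature, 0.9% DMSO. Bound kinase quantified by qPCR.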
# JAK2/JAK2 homdimeric complex, sequence (O60674 whole entry, the tested form may be a part): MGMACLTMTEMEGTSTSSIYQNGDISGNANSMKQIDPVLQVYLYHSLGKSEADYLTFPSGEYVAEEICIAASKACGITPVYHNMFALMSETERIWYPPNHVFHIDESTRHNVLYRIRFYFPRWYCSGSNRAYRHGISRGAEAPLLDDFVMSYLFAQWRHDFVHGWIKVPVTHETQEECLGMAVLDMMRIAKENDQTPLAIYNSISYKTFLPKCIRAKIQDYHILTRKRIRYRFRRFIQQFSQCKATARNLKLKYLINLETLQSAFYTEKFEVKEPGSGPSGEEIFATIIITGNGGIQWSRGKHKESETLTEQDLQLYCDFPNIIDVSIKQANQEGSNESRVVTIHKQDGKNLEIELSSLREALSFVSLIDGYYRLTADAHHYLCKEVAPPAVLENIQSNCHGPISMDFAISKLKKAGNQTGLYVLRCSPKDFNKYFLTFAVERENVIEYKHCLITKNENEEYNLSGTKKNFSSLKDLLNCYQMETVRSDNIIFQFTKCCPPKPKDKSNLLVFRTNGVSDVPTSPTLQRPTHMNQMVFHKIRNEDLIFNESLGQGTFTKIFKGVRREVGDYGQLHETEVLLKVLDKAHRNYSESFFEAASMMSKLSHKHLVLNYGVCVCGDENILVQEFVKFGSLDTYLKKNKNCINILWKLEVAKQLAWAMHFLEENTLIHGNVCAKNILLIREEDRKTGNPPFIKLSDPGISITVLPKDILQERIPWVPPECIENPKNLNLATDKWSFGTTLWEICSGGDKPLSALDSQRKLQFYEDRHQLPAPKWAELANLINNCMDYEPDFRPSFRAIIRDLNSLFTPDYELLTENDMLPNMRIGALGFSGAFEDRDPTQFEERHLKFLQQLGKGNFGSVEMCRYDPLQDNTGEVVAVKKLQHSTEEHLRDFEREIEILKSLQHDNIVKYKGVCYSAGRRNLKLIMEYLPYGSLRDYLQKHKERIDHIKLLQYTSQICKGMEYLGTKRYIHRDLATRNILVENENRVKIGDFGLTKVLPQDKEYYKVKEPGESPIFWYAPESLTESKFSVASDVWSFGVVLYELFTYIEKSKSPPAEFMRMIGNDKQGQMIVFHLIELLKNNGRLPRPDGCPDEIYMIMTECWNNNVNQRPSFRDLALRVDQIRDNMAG
# JAK2/JAK2 homdimeric complex, sequence (P32927 17-897 partner): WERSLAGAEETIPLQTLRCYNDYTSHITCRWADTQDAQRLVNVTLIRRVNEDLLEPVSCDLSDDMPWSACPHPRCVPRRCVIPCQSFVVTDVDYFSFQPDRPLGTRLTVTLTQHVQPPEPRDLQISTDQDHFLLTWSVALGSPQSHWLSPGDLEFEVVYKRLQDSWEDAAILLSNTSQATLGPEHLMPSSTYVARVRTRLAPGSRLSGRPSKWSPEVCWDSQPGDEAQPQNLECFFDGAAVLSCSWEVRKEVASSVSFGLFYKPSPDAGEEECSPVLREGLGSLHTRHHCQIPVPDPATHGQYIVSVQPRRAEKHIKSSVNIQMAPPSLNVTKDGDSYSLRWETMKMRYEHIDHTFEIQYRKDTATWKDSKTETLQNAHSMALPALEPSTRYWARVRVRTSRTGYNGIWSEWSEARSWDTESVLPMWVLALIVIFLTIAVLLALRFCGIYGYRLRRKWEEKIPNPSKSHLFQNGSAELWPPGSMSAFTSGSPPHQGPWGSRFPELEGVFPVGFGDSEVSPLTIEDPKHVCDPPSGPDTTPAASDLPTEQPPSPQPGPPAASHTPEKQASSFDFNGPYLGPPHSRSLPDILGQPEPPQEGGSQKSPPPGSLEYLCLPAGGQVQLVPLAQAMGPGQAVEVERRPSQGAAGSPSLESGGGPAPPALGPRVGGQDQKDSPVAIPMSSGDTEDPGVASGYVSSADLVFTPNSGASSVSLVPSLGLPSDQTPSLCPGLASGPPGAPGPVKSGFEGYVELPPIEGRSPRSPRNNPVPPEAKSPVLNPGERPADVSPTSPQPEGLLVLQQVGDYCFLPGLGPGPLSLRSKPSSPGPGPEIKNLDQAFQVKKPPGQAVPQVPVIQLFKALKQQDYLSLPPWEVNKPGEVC
# human TYK2 (JH2domain-pseudokinase), sequence (P29597 556-888): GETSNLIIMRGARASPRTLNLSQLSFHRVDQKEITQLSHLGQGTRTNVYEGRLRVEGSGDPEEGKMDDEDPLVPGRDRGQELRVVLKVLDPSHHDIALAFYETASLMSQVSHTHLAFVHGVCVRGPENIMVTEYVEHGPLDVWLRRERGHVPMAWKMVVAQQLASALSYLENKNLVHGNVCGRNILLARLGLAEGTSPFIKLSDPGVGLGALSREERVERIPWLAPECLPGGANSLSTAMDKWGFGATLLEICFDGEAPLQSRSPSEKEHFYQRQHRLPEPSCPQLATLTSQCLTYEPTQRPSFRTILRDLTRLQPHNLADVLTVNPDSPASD
# Tyk2/JAK2 (heterodimeric complex), sequence (P29597 whole entry, other chains not shown): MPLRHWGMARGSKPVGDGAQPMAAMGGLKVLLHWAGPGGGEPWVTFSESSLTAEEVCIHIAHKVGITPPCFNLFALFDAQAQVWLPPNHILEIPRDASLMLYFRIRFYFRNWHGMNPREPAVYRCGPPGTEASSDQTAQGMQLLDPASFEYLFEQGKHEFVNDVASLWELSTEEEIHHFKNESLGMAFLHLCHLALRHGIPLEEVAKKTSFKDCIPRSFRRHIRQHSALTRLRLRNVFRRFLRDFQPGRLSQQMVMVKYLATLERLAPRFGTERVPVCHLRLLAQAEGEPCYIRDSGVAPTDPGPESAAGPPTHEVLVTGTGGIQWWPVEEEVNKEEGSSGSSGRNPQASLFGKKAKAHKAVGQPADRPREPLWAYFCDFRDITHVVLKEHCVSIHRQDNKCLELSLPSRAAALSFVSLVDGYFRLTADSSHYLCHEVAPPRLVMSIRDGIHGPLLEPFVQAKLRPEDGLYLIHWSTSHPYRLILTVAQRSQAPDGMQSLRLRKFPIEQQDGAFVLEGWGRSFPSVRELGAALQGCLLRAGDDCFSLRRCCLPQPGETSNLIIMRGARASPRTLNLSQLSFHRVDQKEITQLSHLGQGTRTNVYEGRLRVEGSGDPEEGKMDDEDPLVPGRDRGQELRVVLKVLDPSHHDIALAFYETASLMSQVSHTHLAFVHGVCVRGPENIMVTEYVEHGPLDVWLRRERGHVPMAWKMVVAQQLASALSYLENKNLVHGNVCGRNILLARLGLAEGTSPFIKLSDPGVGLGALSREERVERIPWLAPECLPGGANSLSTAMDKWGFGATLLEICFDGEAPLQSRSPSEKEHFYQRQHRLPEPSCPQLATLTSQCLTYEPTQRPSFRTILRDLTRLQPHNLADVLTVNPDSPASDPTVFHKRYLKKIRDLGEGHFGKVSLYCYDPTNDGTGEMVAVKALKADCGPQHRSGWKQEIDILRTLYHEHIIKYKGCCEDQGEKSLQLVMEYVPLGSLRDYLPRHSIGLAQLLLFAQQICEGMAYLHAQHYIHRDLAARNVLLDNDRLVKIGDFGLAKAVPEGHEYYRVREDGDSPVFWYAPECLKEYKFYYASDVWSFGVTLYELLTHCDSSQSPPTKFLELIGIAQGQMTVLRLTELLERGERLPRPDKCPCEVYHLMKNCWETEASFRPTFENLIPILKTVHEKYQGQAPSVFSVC
# Tyk2 kinase domain (DH1), sequence (P29597 897-1176): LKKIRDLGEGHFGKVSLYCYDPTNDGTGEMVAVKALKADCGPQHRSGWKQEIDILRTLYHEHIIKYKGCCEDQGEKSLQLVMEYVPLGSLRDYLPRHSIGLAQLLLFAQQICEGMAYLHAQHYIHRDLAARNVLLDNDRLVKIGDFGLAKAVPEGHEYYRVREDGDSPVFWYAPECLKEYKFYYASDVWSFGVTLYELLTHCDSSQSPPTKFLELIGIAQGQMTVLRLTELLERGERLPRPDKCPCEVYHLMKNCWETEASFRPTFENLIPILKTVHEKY
# JAK2 kinase domain (JH1), sequence (O60674 849-1124): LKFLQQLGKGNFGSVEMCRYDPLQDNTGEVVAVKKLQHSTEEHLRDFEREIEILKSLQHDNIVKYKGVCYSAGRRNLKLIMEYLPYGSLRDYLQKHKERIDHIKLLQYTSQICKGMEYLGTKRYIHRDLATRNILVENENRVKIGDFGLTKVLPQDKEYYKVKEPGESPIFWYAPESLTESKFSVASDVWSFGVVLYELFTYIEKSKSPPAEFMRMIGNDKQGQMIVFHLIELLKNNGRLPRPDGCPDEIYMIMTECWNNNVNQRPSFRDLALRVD
SMILES,IC50 [1] [µM],IC50 [2] [µM],"inhibition at 10 µM (Tyk2 kinase domain (DH1); compound at 10 μM, ATP 10 μM) [%]","inhibition at 10 µM (JAK2 kinase domain (JH1); compound at 10 μM, ATP 10 μM) [%]",Kd [3] [µM],"Tyk2 JH1% Inhibition @ 10 μM (Tyk2 kinase domain (DH1); compound at 10 μM, ATP 10 μM)","JAK2 JH1% Inhibition @ 10 μM (JAK2 kinase domain (JH1); compound at 10 μM, ATP 10 μM)","inhibition at 10 µM (Tyk2 kinase domain (DH1); 10 μM compound, 10 μM ATP) [%]","inhibition at 10 µM (JAK2 kinase domain (JH1); 10 μM compound, 10 μM ATP) [%]"
CNc1cc(Nc2cc(Cl)cn(C3CCCOC3)c2=O)nc2c(C(=O)NCC(C)(C)CO)cnn12 (centres unmarked) [I-694],< 0.1,> 50,< 50,< 50,< 0.0002,,,,
CNc1cc(Nc2cccc(N3CCC34COC4)n2)nc2c(C(=O)N[C@H]3C[C@H]3F)cnn12 [I-709],< 0.1,> 50,< 50,< 50,< 0.0002,,,,
"CNc1cc(Nc2cccnc2OC)nc2c(C(=O)NO)cnn12 [I-710, N-hydroxy-5-((2-methoxypyridin-3-yl)amino)-7-(methylamino)pyrazolo[1,5-a]pyrimidine-3-carboxamide]",0.1 to 0.5,> 50,< 50,< 50,< 0.0002,,,,
CNc1cc(Nc2cc(Cl)cn(C3CCCOC3)c2=O)nc2c(C(=O)NC3CC3)cnn12 (centres unmarked) [I-711],< 0.1,> 50,< 50,< 50,< 0.0002,,,,
CNc1cc(Nc2cc(Cl)cn(C3CCOCC3)c2=O)nc2c(C(=O)N[C@H]3CC[C@@H]3O)cnn12 [I-712],< 0.1,> 12.5,< 50,< 50,< 0.0002,,,,
CNc1cc(Nc2cccn(-c3ncco3)c2=O)nc2c(C(=O)NC3CC3)cnn12 [I-715],< 0.1,> 2.5,< 50,< 50,< 0.0002,,,,
CNc1cc(Nc2cccn(-c3ncco3)c2=O)nc2c(C(=O)N[C@H]3C[C@H]3F)cnn12 [I-716],< 0.1,> 2.5,< 50,< 50,< 0.0002,,,,
CNc1cc(Nc2cccn(-c3cnc(C)o3)c2=O)nc2c(C(=O)N[C@H]3C[C@H]3F)cnn12 [I-718],< 0.1,> 12.5,< 50,< 50,< 0.0002,,,,
"CNc1cc(Nc2cccn([C@H]3CC[C@](C)(OC)CC3)c2=O)nc2c(C(=O)N[C@@H]3CC[C@@H]3O)cnn12 [I-722, N-((1S,2R)-2-hydroxycyclobutyl)-5-((1-((1R,4S)-4-methoxy-4-methylcyclohexyl)-2-oxo-1,2-dihydropyridin-3-yl)amino)-7-(methylamino)pyrazolo[1,5-a]pyrimidine-3-carboxamide]",< 0.1,> 12.5,,,< 0.0002,A (percent inhibition at 10 μM lower than 50),A (percent inhibition at 10 μM lower than 50),,
CNc1cc(Nc2cccn([C@H]3CCCOC3)c2=O)nc2c(C(=O)N[C@@H]3CC[C@H]3O)cnn12 [I-725],< 0.1,> 2.5,< 50,< 50,< 0.0002,,,,
CNc1cc(Nc2cc(Cl)cn(C3CCCN(C)C3)c2=O)nc2c(C(=O)NC3CC3)cnn12 (centres unmarked) [I-740],< 0.1,> 2.5,< 50,< 50,< 0.0002,,,,
CNc1cc(Nc2cccn(-c3cccnc3)c2=O)nc2c(C(=O)NC3CC3)cnn12 [I-747],0.1 to 0.5,> 12.5,< 50,< 50,< 0.0002,,,,
CNc1cc(Nc2cccn(-c3cccnc3)c2=O)nc2c(C(=O)N[C@@H]3C[C@@H]3F)cnn12 [I-748],< 0.1,> 2.5,< 50,< 50,< 0.0002,,,,
CNc1cc(Nc2cccc3ocnc23)nc2c(C(=O)NCC(C)(C)CO)cnn12 [I-750],< 0.1,> 2.5,< 50,< 50,< 0.0002,,,,
CNc1cc(Nc2cccn([C@@H]3CCCOC3)c2=O)nc2c(C(=O)N[C@H]3CC[C@H]3O)cnn12 [I-751],< 0.1,> 12.5,< 50,< 50,< 0.0002,,,,
CNc1cc(Nc2cc(Cl)cn(C3CCCN(C)C3)c2=O)nc2c(C(=O)N[C@@H]3C[C@@H]3F)cnn12 (some centres unmarked) [I-759],< 0.1,> 50,< 50,< 50,< 0.0002,,,,
CNc1cc(Nc2cccn(-c3cnco3)c2=O)nc2c(C(=O)N[C@@H]3C[C@@H]3F)cnn12 [I-762],< 0.1,> 2.5,< 50,< 50,< 0.0002,,,,

SMILES,IC50 [1] [µM],IC50 [2] [µM],"inhibition at 10 µM (Tyk2 kinase domain (DH1); compound at 10 μM, ATP 10 μM) [%]","inhibition at 10 µM (JAK2 kinase domain (JH1); compound at 10 μM, ATP 10 μM) [%]",Kd [3] [µM],"Tyk2 JH1% Inhibition @ 10 μM (Tyk2 kinase domain (DH1); compound at 10 μM, ATP 10 μM)","JAK2 JH1% Inhibition @ 10 μM (JAK2 kinase domain (JH1); compound at 10 μM, ATP 10 μM)","inhibition at 10 µM (Tyk2 kinase domain (DH1); 10 μM compound, 10 μM ATP) [%]","inhibition at 10 µM (JAK2 kinase domain (JH1); 10 μM compound, 10 μM ATP) [%]"
CNc1cc(Nc2cccc3ocnc23)nc2c(C(=O)N[C@@H]3CC[C@@H]3O)cnn12 [I-770],< 0.1,> 2.5,,,< 0.0002,A (percent inhibition at 10 μM lower than 50),A (percent inhibition at 10 μM lower than 50),,
CNc1cc(Nc2cc(Cl)cn([C@H]3CCCOC3)c2=O)nc2c(C(=O)N[C@@H]3C[C@@H]3F)cnn12 [I-772],< 0.1,> 0.3,< 50,< 50,< 0.0002,,,,
CNc1cc(Nc2cc(Cl)cn([C@@H]3CCCOC3)c2=O)nc2c(C(=O)N[C@@H]3C[C@@H]3F)cnn12 [I-773],< 0.1,> 12.5,< 50,< 50,< 0.0002,,,,
CNc1cc(Nc2cc(Cl)cn([C@H]3CCCOC3)c2=O)nc2c(C(=O)NC3CC3)cnn12 [I-782],< 0.1,> 50,< 50,< 50,< 0.0002,,,,
CNc1cc(Nc2cc(Cl)cn([C@@H]3CCCOC3)c2=O)nc2c(C(=O)NC3CC3)cnn12 [I-783],< 0.1,> 50,< 50,< 50,< 0.0002,,,,
CNc1cc(Nc2cc(Cl)cn(C3CCN(C)CC3)c2=O)nc2c(C(=O)N[C@@H]3C[C@@H]3F)cnn12 [I-789],< 0.1,> 12.5,< 50,< 50,< 0.0002,,,,
CNc1cc(Nc2cccn(-c3ocnc3C)c2=O)nc2c(C(=O)N[C@@H]3C[C@@H]3F)cnn12 [I-790],< 0.1,> 12.5,< 50,< 50,< 0.0002,,,,
CNc1cc(Nc2cccn(-c3ccccn3)c2=O)nc2c(C(=O)N[C@H]3CC[C@H]3O)cnn12 [I-805],< 0.1,> 12.5,< 50,< 50,< 0.0002,,,,
CNc1cc(Nc2cccn([C@H]3[C@@H]4COC[C@@H]43)c2=O)nc2c(C(=O)N[C@@H]3C[C@@H]3F)cnn12 [I-811],< 0.1,> 50,,,< 0.0002,,,< 50,< 50
CNc1cc(Nc2cc(Cl)cn([C@@H]3CCCN(C)C3)c2=O)nc2c(C(=O)NC3CC3)cnn12 [I-819],< 0.1,> 50,,,< 0.0002,,,< 50,< 50
CNc1cc(Nc2cc(Cl)cn([C@H]3CCCN(C)C3)c2=O)nc2c(C(=O)NC3CC3)cnn12 [I-820],< 0.1,> 12.5,,,< 0.0002,,,< 50,< 50
CNc1cc(Nc2cc(Cl)cn(C3CCOCC3)c2=O)nc2c(C(=O)N[C@@H]3CC[C@H]3O)cnn12 [I-825],< 0.1,> 50,,,< 0.0002,,,< 50,< 50
CNc1cc(Nc2cccc(N3CCO[C@]4(CCOC4)C3)n2)nc2c(C(=O)NC3CC3)cnn12 [I-827],0.1 to 0.5,> 50,,,< 0.0002,,,< 50,< 50
CNc1cc(Nc2cccn([C@H]3CC[C@H](OC)CC3)c2=O)nc2c(C(=O)NC[C@H](C)CO)cnn12 [I-829],< 0.1,> 50,,,< 0.0002,,,< 50,< 50
CNc1cc(Nc2cccn([C@@H]3CCC[C@H](OC)C3)c2=O)nc2c(C(=O)N[C@@H]3C[C@@H]3F)cnn12 [I-840],< 0.1,> 50,,,< 0.0002,,,< 50,< 50
"CNc1cc(-c2cn(C(C)C)c3ncccc23)nc2c(C(=O)N[C@@H]3COC[C@@H]3O)cnn12 [I-842, N-((3R,4R)-4-hydroxytetrahydrofuran-3-yl)-5-(1-isopropyl-1H-pyrrolo[2,3-b]pyridin-3-yl)-7-(methylamino)pyrazolo[1,5-a]pyrimidine-3-carboxamide]",< 0.1,> 50,,,< 0.0002,,,< 50,< 50
CNc1cc(Nc2cccn(C3CCN(CCF)CC3)c2=O)nc2c(C(=O)NCC(C)(C)CO)cnn12 [I-847],0.1 to 0.5,> 50,,,< 0.0002,,,< 50,< 50
